The text below walks through data of US7332503B2, “Aporphine esters and their use in therapy” (Axon Biochemicals B.V., priority 2000, dated 2008).

Data set [1] has as its system rat. Briefly: Transdermal experiment in one single rat (shaved neck). It counts as in vivo. As for the experimental part: The test animals used were male albino Wistar rats weighing between 200 and 370 g. Food and water were available to the rats all the time. They were set in a normal 12 hour day night rhythm. Before the operation the animals resided in a larger cage with a group of rats. During the experiments they were alone in a cage with the dimensions 25*25*35 cm. The blood sampling was performed in freely moving animals, which were all conscious. In this way potential behavioral changes from the treatment could be registered. The operation consisted of the application of a cannula in the vena jugularis. After an experiment the rats were given at least 24 hours to recover.
This amount of cream was applied with a spatula on the shaved neck of the rat, weighing about 350 g.
After one hour and 10 minutes, about five droplets of DMSO were smeared on to the rat neck.
In a comparative experiment 7 mg of Apomorphine hydrochloride solid was dissolved in DMSO (70 microliters).

For data set [2] the following is noted: literature, animal models; cited from earlier work.
The test system of data set [3] is rat. The experiment in a line: Dopaminergic activity in rats after s.c. injection in Viscoleo. It counts as in vivo. The note with it: two rats, ca 3.7 mg/kg (corr. to 2 mg/kg ApoxHCl), 3.7 mg/mL in Viscoleo. The method, then:
The maximum volume of an oil solution/suspension to be injected intramuscularly or subcutaneously is 2-4 mL. This is feasible for the preparations of the aporphine derivatives of the present invention. The accumulated daily dose used in apomorphine s.c. therapy in Parkinson's disease is 4-10 times about 1-4 mg (4-40 mg/day). For the animal experiments performed in the pharmacological research, which led to the present invention, ca 2 mg Apomorphine×HCl (or equivalent molar amount of compounds according to Formula I above, as the base or as a suitable salt or ion-pair) was dissolved in 1 mL of an oil (sesame oil, Viscoleo or another approved oil) and the mixture was gently heated (max 50° C.) shaken in a test tube shaker and ultrasonicated for a short time (minutes) until the mixture became a homogeneous solution or suspension. If necessary, the test compound was first dissolved in 50-300 μL DMSO, water, t-BuOH, PEG, benzylbenzoate, or another suitable and approved solvent or mixtures thereof, before adding the oil (see above) to a total volume of 1 mL.
First 2 eq. were added and after a night at room temperature the solvent was evaporated and the residue was redissolved in CH2Cl2 and a sample was taken with a pipette and chromatographed on a pipette filled with Al2O3. Elution was performed with first CH2Cl2 and then with CH2Cl2:EtOH (9:1). […]

For data set [4] the following is noted: background statement; cited from earlier work.
Where [5] appears, read: comparative: 2 mg in 20 microliters DMSO on shaved neck.
The mark [6] stands for this setting: about 5 mg in Fenuril cream plus DMSO.

Where a name gives a salt, the structure may show the parent alone.

Take `CN1CCc2cccc3c2[C@H]1Cc1ccc(O)c(O)c1-3` [Apomorphine hydrochloride]: in the data set with rat [1] (setting [5]), the “dopaminergic activity after end of stereotypy” value was “No other signs of dopaminergic activity”, the “duration of intense stereotypy” value was “about two” and the time to stereotypy entry is on record as “about 30 minutes”.

Regarding Mono-Butyryl Apomorphine [Example 2], in the data set on rat [1] (setting [6]), the “behaviour the next day at 10:00 a.m.” value was “still active showing signs of chewing”; the “time at which chewing, sniffing and yawning were still observed” value is approximately 6 h. In addition, the duration of stereotypy entry in the data set on rat [1] (about 5 mg in Fenuril cream, after DMSO) was “at least two”. The “time to typical dopaminergic syndrome including locomotor activity” value in the data set with rat [1] (about 5 mg in Fenuril cream, time after DMSO) is listed as “About 30 minutes”. Moreover, the “time to intense yawning, sniffing, penile licking and chewing” value in the data set with rat [1] (about 5 mg in Fenuril cream, time after about five droplets of DMSO smeared on neck) was “about 10 minutes”. Also, in the data set with rat [1] (about 5 mg in about 120 mg Fenuril hand cream on shaved neck, first hour, before DMSO), the dopaminergic effects result was “Dopaminergic effects were seen but they were weak”.

For `CN1CCc2cccc3c2C1Cc1ccc(OC(=O)C(C)(C)C)c(OC(=O)C(C)(C)C)c1-3` (centres unmarked) [dipivaloyl ester pro-drug], the “activity relative to parent compound apomorphine” value in data set [2] is “much less active than the parent compound”.

`CCCCCCCCCCCCCCCC(=O)Oc1ccc2c(c1OC(=O)CCCCCCCCCCCCCCC)-c1cccc3c1C(C2)N(C)CC3` (centres unmarked) [di-C16-Apo]: in the data set on rat [3], the “effect (dopaminergic activity)” value is “No effect whatsoever”.

Take `CC(=O)Oc1ccc2c(c1OC(C)=O)-c1cccc3c1C(C2)N(C)CC3` (centres unmarked) [10,11-Di-acetyl-apomorphine]: the “activity relative to parent compound apomorphine” value in data set [2] is reported as “almost as potent as apomorphine itself”.

For the molecule `N[C@@H](Cc1ccc(O)c(O)c1)C(=O)O` [levodopa], in data set [4], the “fraction of drug converted to DA in peripheral tissues” value is “about 95%” and the “fraction of drug that enters the brain” value is “less than 1%”.
